Values of other authors in patent US20180169018A1, “Method for improving the dissolution profile of a biologically active material” (iCeutica Pty Ltd., priority 2009, published 2018).

Settings: absorption by the body

Tmax: 4 to 5 h
Compound: Cc1cnc(NC(=O)C2=C(O)c3ccccc3S(=O)(=O)N2C)s1 [Meloxicam, meloxicam]
